{
  "source": "the NIST ThermoML archive (doi:10.1016/j.jct.2007.02.002)",
  "conditions": "101.33 kPa, Liquid; for speed of sound: Sing-around technique in a fixed-path interferometer",
  "note": "Numbers after ± are expanded uncertainties.",
  "data": [
    {"smiles": "COC(C)(C)C", "note": "[2-methoxy-2-methylpropane]", "values": [
      {"measurement": "mass density", "setting": "288.15 K", "value": "745.79 ± 0.27", "unit": "kg/m3"},
      {"measurement": "speed of sound", "setting": "288.15 K", "value": "1082.4 ± 1.2", "unit": "m/s"},
      {"measurement": "mass density", "setting": "293.15 K", "value": "740.6 ± 0.28", "unit": "kg/m3"},
      {"measurement": "speed of sound", "setting": "293.15 K", "value": "1059.4 ± 1.2", "unit": "m/s"},
      {"measurement": "mass density", "setting": "298.15 K", "value": "735.35 ± 0.28", "unit": "kg/m3"},
      {"measurement": "speed of sound", "setting": "298.15 K", "value": "1036.1 ± 1.2", "unit": "m/s"},
      {"measurement": "mass density", "setting": "303.15 K", "value": "730.06 ± 0.28", "unit": "kg/m3"},
      {"measurement": "speed of sound", "setting": "303.15 K", "value": "1013 ± 1.2", "unit": "m/s"},
      {"measurement": "mass density", "setting": "308.15 K", "value": "724.73 ± 0.29", "unit": "kg/m3"},
      {"measurement": "speed of sound", "setting": "308.15 K", "value": "990.1 ± 1.1", "unit": "m/s"}
    ]},
    {"smiles": "CCCCCC", "note": "[hexane]", "values": [
      {"measurement": "mass density", "setting": "288.15 K", "value": "663.87 ± 0.68", "unit": "kg/m3"},
      {"measurement": "speed of sound", "setting": "288.15 K", "value": "1121.4 ± 1.3", "unit": "m/s"},
      {"measurement": "mass density", "setting": "293.15 K", "value": "659.44 ± 0.69", "unit": "kg/m3"},
      {"measurement": "speed of sound", "setting": "293.15 K", "value": "1099 ± 1.3", "unit": "m/s"},
      {"measurement": "mass density", "setting": "298.15 K", "value": "654.95 ± 0.7", "unit": "kg/m3"},
      {"measurement": "speed of sound", "setting": "298.15 K", "value": "1076.3 ± 1.2", "unit": "m/s"},
      {"measurement": "mass density", "setting": "303.15 K", "value": "650.4 ± 0.7", "unit": "kg/m3"},
      {"measurement": "speed of sound", "setting": "303.15 K", "value": "1053.6 ± 1.2", "unit": "m/s"},
      {"measurement": "mass density", "setting": "308.15 K", "value": "645.82 ± 0.71", "unit": "kg/m3"},
      {"measurement": "speed of sound", "setting": "308.15 K", "value": "1031.1 ± 1.2", "unit": "m/s"}
    ]},
    {"smiles": "CCCCO", "note": "[butan-1-ol]", "values": [
      {"measurement": "mass density", "setting": "288.15 K", "value": "813.24 ± 0.4", "unit": "kg/m3"},
      {"measurement": "speed of sound", "setting": "288.15 K", "value": "1273.7 ± 1.7", "unit": "m/s"},
      {"measurement": "mass density", "setting": "293.15 K", "value": "809.48 ± 0.4", "unit": "kg/m3"},
      {"measurement": "speed of sound", "setting": "293.15 K", "value": "1257 ± 1.7", "unit": "m/s"},
      {"measurement": "mass density", "setting": "298.15 K", "value": "805.67 ± 0.4", "unit": "kg/m3"},
      {"measurement": "speed of sound", "setting": "298.15 K", "value": "1239.8 ± 1.7", "unit": "m/s"},
      {"measurement": "mass density", "setting": "303.15 K", "value": "801.85 ± 0.4", "unit": "kg/m3"},
      {"measurement": "speed of sound", "setting": "303.15 K", "value": "1222.7 ± 1.7", "unit": "m/s"},
      {"measurement": "mass density", "setting": "308.15 K", "value": "797.99 ± 0.41", "unit": "kg/m3"},
      {"measurement": "speed of sound", "setting": "308.15 K", "value": "1205.9 ± 1.7", "unit": "m/s"}
    ]}
  ]
}
